Legend:
Details in all cases: average where tested multiple times
hBCAT1 = target: T1, hBCAT1 (Homo sapiens, UniProt P54687); test: BCAT1 in vitro enzyme inhibition assay (resazurin/diaphorase-coupled fluorescence); assay type: biochemical
T1 sequence (P54687 1-386): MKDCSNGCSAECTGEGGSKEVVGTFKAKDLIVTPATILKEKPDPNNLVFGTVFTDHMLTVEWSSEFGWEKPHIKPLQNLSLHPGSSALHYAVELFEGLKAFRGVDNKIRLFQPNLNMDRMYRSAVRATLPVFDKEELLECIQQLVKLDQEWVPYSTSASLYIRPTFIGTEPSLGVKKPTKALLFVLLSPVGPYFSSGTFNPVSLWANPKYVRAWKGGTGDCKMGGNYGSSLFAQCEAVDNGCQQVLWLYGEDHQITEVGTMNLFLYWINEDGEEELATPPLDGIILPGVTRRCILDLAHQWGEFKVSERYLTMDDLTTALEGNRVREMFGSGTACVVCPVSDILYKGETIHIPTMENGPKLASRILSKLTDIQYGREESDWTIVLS
Summary of the method: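 Ten-point, 3-fold compound series (top final 100 μM, delivered 1:50 from 50× DMSO stocks) tested against hBCAT1. Inhibition detected via diaphorase-coupled resazurin fluorescence, duplicate wells, with values from repeated runs averaged.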

BCAT2 [1] = target: T2, BCAT2 (Homo sapiens, UniProt O15382); test: BCAT2 in vitro cell inhibition using engineered A549 cells (KMV cell assay, 13C6-KMV by LC-MS/MS); assay type: cell-based; set-up: The result was an engineered A549 cell line that expressed endogenous BCAT2; endogenous in cells; host or cells: A549 cells with MUT and BCAT1 knocked out by CRISPR/CAS9; key to BCAT2 Cell Inhibition: A: less than or equal to 0.100 μM; B: greater than 0.100 and less than or equal to 0.500 μM; C: greater than 0.500 and less than or equal to 1.000 μM; d: greater than 1.000 μM; E: no fit
T2 sequence (O15382 28-392): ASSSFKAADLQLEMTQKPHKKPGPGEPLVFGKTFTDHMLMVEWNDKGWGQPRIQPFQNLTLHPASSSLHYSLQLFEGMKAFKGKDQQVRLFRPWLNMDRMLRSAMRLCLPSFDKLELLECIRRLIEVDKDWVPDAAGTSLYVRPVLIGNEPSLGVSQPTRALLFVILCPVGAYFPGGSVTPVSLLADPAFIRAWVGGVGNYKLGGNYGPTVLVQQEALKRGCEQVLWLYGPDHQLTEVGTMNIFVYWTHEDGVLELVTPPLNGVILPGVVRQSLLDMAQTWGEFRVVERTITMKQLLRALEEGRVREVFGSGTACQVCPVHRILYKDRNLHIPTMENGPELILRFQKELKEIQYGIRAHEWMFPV

BCAT2 [2] = target: T2, BCAT2; test: BCAT2 in vitro enzyme inhibition assay (resazurin/diaphorase-coupled fluorescence); assay type: biochemical
Summary of the method: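 Coupled fluorescence readout: glutamate formed from L-leucine/α-ketoglutarate transamination drives GDH/NAD/diaphorase reduction of resazurin (Ex 540/Em 590). Human BCAT2 was first exposed 1 h at room temperature to compound, top final 100 μM in 3-fold, 10-point series; substrate reaction ran 1 h before SDS quench, in technical duplicate with DMSO max and enzyme-free min controls.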

Structure (SMILES) | IC50 (hBCAT1) | IC50 (BCAT2 [1]) | IC50 (BCAT2 [2]) | BCAT2 Cell Inhibition (BCAT2 [1])
O=C(N[C@H]1CCC[C@@H](n2c(-c3ccccc3F)nc3cnc(-c4nn[nH]n4)cc32)C1)c1ccc(Cl)s1 [Example 82, 5-chloro-N-((1S,3R)-3-(2-(2-fluorophenyl)-6-(2H-tetrazol-5-yl)-1H-imidazo[4,5-c]pyridin-1-yl)cyclohexyl)thiophene-2-carboxamide] | < 0.5 µM | 0.5 to 1 µM | ≤ 0.1 µM | –
O=C(N[C@H]1CCC[C@@H](n2c(-c3ccccc3F)nc3cnc(-c4nc[nH]n4)cc32)C1)c1ncc(Cl)s1 [Example 83, 5-chloro-N-((1S,3R)-3-(2-(2-fluorophenyl)-6-(1H-1,2,4-triazol-3-yl)-1H-imidazo[4,5-c]pyridin-1-yl)cyclohexyl)thiazole-2-carboxamide] | < 0.5 µM | ≤ 0.1 µM | ≤ 0.1 µM | –
CC(C)Cc1nc2cnc(-n3nccn3)cc2n1[C@@H]1CCC[C@H](NC(=O)c2ncc(Cl)s2)C1 [Example 84, 5-chloro-N-((1S,3R)-3-(2-isobutyl-6-(2H-1,2,3-triazol-2-yl)-1H-imidazo[4,5-c]pyridin-1-yl)cyclohexyl)thiazole-2-carboxamide] | < 0.5 µM | ≤ 0.1 µM | ≤ 0.1 µM | –
O=C(N[C@H]1CCC[C@@H](n2c(-c3ccccc3F)nc3cnc(-c4nc[nH]n4)cc32)C1)c1ncc(C(F)(F)F)s1 [Example 85, N-((1S,3R)-3-(2-(2-fluorophenyl)-6-(1H-1,2,4-triazol-3-yl)-1H-imidazo[4,5-c]pyridin-1-yl)cyclohexyl)-5-(trifluoromethyl)thiazole-2-carboxamide] | < 0.5 µM | ≤ 0.1 µM | ≤ 0.1 µM | –
CC(C)Cc1nc2cnc(-c3nc[nH]n3)cc2n1[C@@H]1CCC[C@H](NC(=O)c2ncc(Cl)s2)C1 [Example 86, 5-chloro-N-((1S,3R)-3-(2-isobutyl-6-(1H-1,2,4-triazol-3-yl)-1H-imidazo[4,5-c]pyridin-1-yl)cyclohexyl)thiazole-2-carboxamide] | < 0.5 µM | ≤ 0.1 µM | ≤ 0.1 µM | –
COCc1nc2cnc(-c3nc[nH]n3)cc2n1[C@@H]1CCC[C@H](NC(=O)c2ncc(Cl)s2)C1 [Example 91, 5-chloro-N-[(1S,3R)-3-[2-(methoxymethyl)-6-(1H-1,2,4-triazol-3-yl)imidazo[4,5-c]pyridin-1-yl]cyclohexyl]thiazole-2-carboxamide] | 1 to 5 µM | > 1 µM | 0.1 to 0.5 µM | –
O=C(O)Cc1ccccc1-c1nc2cnc(-n3nccn3)cc2n1[C@@H]1CCC[C@H](NC(=O)c2ncc(C(F)F)s2)C1 [Example 96, 2-(2-(1-((1R,3S)-3-(5-(difluoromethyl)thiazole-2-carboxamido)cyclohexyl)-6-(2H-1,2,3-triazol-2-yl)-1H-imidazo[4,5-c]pyridin-2-yl)phenyl)acetic acid] | 1 to 5 µM | – | 0.1 to 0.5 µM | E
CC(Oc1nc2cnc(-n3nccn3)cc2n1[C@@H]1CCC[C@H](NC(=O)c2ncc(C(F)F)s2)C1)C(F)(F)F (stereo partly drawn) [Example 98, N-((1S,3R)-3-(6-(2H-1,2,3-triazol-2-yl)-2-((1,1,1-trifluoropropan-2-yl)oxy)-1H-imidazo[4,5-c]pyridin-1-yl)cyclohexyl)-5-(difluoromethyl)thiazole-2-carboxamide] | > 5 µM | > 1 µM | 0.1 to 0.5 µM | –
O=C(N[C@H]1CCC[C@@H](n2c(-c3ccccc3C(=O)O)nc3cnc(-n4nccn4)cc32)C1)c1ncc(C(F)F)s1 [Example 99, 2-(1-((1R,3S)-3-(5-(difluoromethyl)thiazole-2-carboxamido)cyclohexyl)-6-(2H-1,2,3-triazol-2-yl)-1H-imidazo[4,5-c]pyridin-2-yl)benzoic acid] | 1 to 5 µM | – | ≤ 0.1 µM | E
O=C(N[C@H]1CCC[C@@H](n2c(OCC(F)(F)F)nc3cnc(-n4nccn4)cc32)C1)c1ncc(Cl)s1 [Example 101, N-((1S,3R)-3-(6-(2H-1,2,3-triazol-2-yl)-2-(2,2,2-trifluoroethoxy)-1H-imidazo[4,5-c]pyridin-1-yl)cyclohexyl)-5-chlorothiazole-2-carboxamide] | > 5 µM | > 1 µM | 0.1 to 0.5 µM | –
O=C(N[C@H]1CCC[C@@H](n2c(-c3ccccc3F)nc3cnc(-c4ccccn4)cc32)C1)c1ncc(Cl)s1 [Example 104, 5-chloro-N-((1S,3R)-3-(2-(2-fluorophenyl)-6-(pyridin-2-yl)-1H-imidazo[4,5-c]pyridin-1-yl)cyclohexyl)thiazole-2-carboxamide] | < 0.5 µM | ≤ 0.1 µM | ≤ 0.1 µM | –
Nc1cccc(-c2cc3c(cn2)nc(-c2ccccc2F)n3[C@@H]2CCC[C@H](NC(=O)c3ncc(Cl)s3)C2)n1 [Example 105, N-((1S,3R)-3-(6-(6-aminopyridin-2-yl)-2-(2-fluorophenyl)-1H-imidazo[4,5-c]pyridin-1-yl)cyclohexyl)-5-chlorothiazole-2-carboxamide] | < 0.5 µM | ≤ 0.1 µM | ≤ 0.1 µM | –
O=C(NC1CC(O)CC(n2c(-c3ccccc3F)nc3cnc(-n4nccn4)cc32)C1)c1ncc(C(F)F)s1 (stereo not drawn) [Example 106, 5-(difluoromethyl)-N-(3-(2-(2-fluorophenyl)-6-(2H-1,2,3-triazol-2-yl)-1H-imidazo[4,5-c]pyridin-1-yl)-5-hydroxycyclohexyl)thiazole-2-carboxamide] | < 0.5 µM | ≤ 0.1 µM | ≤ 0.1 µM | –
O=C(NC1CC(O)CC(n2c(-c3ccccc3F)nc3cnc(-n4nccn4)cc32)C1)c1ncc(Cl)s1 (stereo not drawn) [Example 109, 5-chloro-N-(3-(2-(2-fluorophenyl)-6-(2H-1,2,3-triazol-2-yl)-1H-imidazo[4,5-c]pyridin-1-yl)-5-hydroxycyclohexyl)thiazole-2-carboxamide] | < 0.5 µM | ≤ 0.1 µM | ≤ 0.1 µM | –
O=C(NC1CCCC(n2c(-c3ccccc3F)nc3cnc(-n4nccn4)cc32)C1O)c1ncc(Cl)s1 (stereo not drawn) [Example 112, 5-chloro-N-(3-(2-(2-fluorophenyl)-6-(2H-1,2,3-triazol-2-yl)-1H-imidazo[4,5-c]pyridin-1-yl)-2-hydroxycyclohexyl)thiazole-2-carboxamide] | < 0.5 µM | ≤ 0.1 µM | ≤ 0.1 µM | –
O=C(NC1CC(O)CC(n2c(-c3ccccc3F)nc3cnc(-c4nnc[nH]4)cc32)C1)c1ncc(Cl)s1 (stereo not drawn) [Example 115, 5-chloro-N-(3-(2-(2-fluorophenyl)-6-(4H-1,2,4-triazol-3-yl)-1H-imidazo[4,5-c]pyridin-1-yl)-5-hydroxycyclohexyl)thiazole-2-carboxamide] | < 0.5 µM | ≤ 0.1 µM | ≤ 0.1 µM | –
C#Cc1ccc(C(=O)NC2CC(n3c(-c4ccccc4F)nc4cnc(-c5ncco5)cc43)CN(C)C2)s1 (stereo not drawn) [Example 116, 5-ethynyl-N-(5-(2-(2-fluorophenyl)-6-(oxazol-2-yl)-1H-imidazo[4,5-c]pyridin-1-yl)-1-methylpiperidin-3-yl)thiophene-2-carboxamide] | < 0.5 µM | ≤ 0.1 µM | ≤ 0.1 µM | –
CN1CC(NC(=O)c2ccc(Br)s2)CC(n2c(-c3ccccc3F)nc3cnc(-c4ncco4)cc32)C1 (stereo not drawn) [Example 117, 5-bromo-N-(5-(2-(2-fluorophenyl)-6-(oxazol-2-yl)-1H-imidazo[4,5-c]pyridin-1-yl)-1-methylpiperidin-3-yl)thiophene-2-carboxamide] | 0.5 to 1 µM | ≤ 0.1 µM | ≤ 0.1 µM | –

Reference: patent publication US20260159512A1, “BCAT2 INHIBITORS” (AGIOS PHARMACEUTICALS, INC., priority 2021, published 2026)
